Data from the METLIN SMRT retention time set (Domingo-Almenara et al. 2019).

Test: gradient 5% acetonitrile 3 min, to 50% in 2 min, to 85% in 15 min, held 3 min, 100 µL/min
Details: column: Zorbax Extend-C18 2.1 x 50 mm; eluents: water / acetonitrile, 0.1% formic acid
Outline: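 Values are retention times taken from adduct peaks that software picked and an analyst inspected. The pure standards were run as mixtures of ~100 molecules on HPLC linked to a quadrupole time-of-flight mass spectrometer, in positive and negative ionization mode. A Zorbax Extend-C18 column (2.1 × 50 mm, 1.8 μm) was used at 100 μL/min with water and acetonitrile, each including 0.1% formic acid.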

| Structure (SMILES) | RP-LC retention time [s] |
| --- | --- |
| Cc1cc(Nc2nc(N[C@@H](C)c3ccc(F)cc3)c(C#N)cc2F)n[nH]1 | 877 |
| O=C1COc2ccccc2N1Cc1nc(-c2ccc(Cl)cc2)no1 | 1070 |
| CCN(CC)CCSc1ccc(C(=O)N2CCN(c3ncccn3)CC2)cn1 | 600 |
| COc1ccc(N2C=C(C#N)S(=O)(=O)c3ccc(Cl)cc32)cc1OC | 916 |
| CC1(C(=O)NCc2ccc(F)cc2)CCN(C(=O)Nc2ccccc2Br)CC1 | 871 |
| Cc1ccc(NC(=O)N2CCCC(C)(C(=O)NCc3ccccc3C)C2)cc1 (stereo not drawn) | 942 |
| Cc1nc(CC(=O)Nc2ccc(F)cc2C)cs1 | 737 |
| Cc1ccc(C(=O)N2CC[C@H](CO)[C@H](N(C)C)C2)s1 | 577 |
| CCCNC(=O)c1cc(=O)[nH]c2ccccc12 | 620 |
| CC(C)Oc1ccccc1CN1C[C@@H]2C(=O)N(CCCN3CCCC3=O)C(=O)[C@@H]2C1 | 630 |
| COc1cc(NC(=O)N2CCc3cn(C)c4cccc(c34)C2)cc(OC)c1 | 713 |
| C=C(C)CN1CC[C@]23c4c5ccc(O)c4O[C@H]2c2[nH]c4ccccc4c2C[C@@]3(O)[C@H]1C5 | 647 |
| CC(=O)c1cccc(NC(=O)Cc2ccc3ccccc3c2)c1 | 858 |
| CCN1C(=O)COc2ccc(-c3noc(-c4ccc(CS(=O)(=O)c5ccc(C)cc5)cc4)n3)cc21 | 1100 |
| COCCN1C(=O)CS(=O)(=O)C12CCN(C(=O)C1(c3ccccc3)CC1)CC2 | 685 |
| COc1ccc(OC)c(S(=O)(=O)N2CCCC(C(=O)N3CCC(C(N)=O)CC3)C2)c1 (stereo not drawn) | 635 |
| C=C1/C(=C/C=C2/CCC[C@]3(C)[C@@H]([C@H](C)CCCC(C)C)CC[C@@H]23)C[C@@H](O)C[C@@H]1O | 1220 |
| CC1CCN(S(=O)(=O)N2CCC(C(=O)N3CCCC(c4nc(C5CCOCC5)no4)C3)CC2)CC1 (stereo not drawn) | 878 |
| CCC1(O)CCC12CCN(C(=O)CC(C)C)CC2 (stereo not drawn) | 744 |
| COC(=O)c1ccc2c(=O)n(CCc3ccccc3)c(N3CCCCCC3)nc2c1 | 1300 |
| COc1ccc(NS(=O)(=O)c2cc3n(c2)CCCN(C)C3=O)cc1Cl | 696 |
| CCc1cc(C(=O)Nc2ccc(F)c(C)c2)nc2ccnn12 | 1180 |

| Structure (SMILES) | RP-LC retention time [s] |
| --- | --- |
| CCC(C(=O)N1CCN(c2ccccn2)CC1)n1c2ccccc2c2cnn(C)c(=O)c21 (stereo not drawn) | 638 |
| COCCCNC(=O)NCc1cccnc1OC | 594 |
| CCOc1ccc(C2C(=O)N(C3CCCCC3)CC(=O)N2Cc2ccco2)cc1OC (stereo not drawn) | 879 |
| CCOC(=O)C(NC(C)=O)(C(=O)OCC)C(C)c1c[nH]c2ccccc12 (stereo not drawn) | 847 |
| c1ccc(-c2csc(Nc3cccnc3)n2)cc1 | 674 |
| COc1ccc(-c2cc3c(=O)n(Cc4nc(-c5cccc(OC)c5OC)oc4C)ccn3n2)cc1 | 990 |
| COc1ccc(-c2nnc(N3CCC(C(=O)NC(C)c4ccc(C)cc4C)CC3)o2)cc1 (stereo not drawn) | 934 |
| CCN1c2cc(F)ccc2C(=O)NC12CCN(C(=O)c1ccccc1C)CC2 | 835 |
| CCC1=C(c2ccc(C)cc2)S(=O)(=O)N=C1N1CCC(C(=O)NCCCOC(C)C)CC1 | 844 |
| O=C([C@@H]1C[C@H](F)CN1C(=O)c1ccccc1)N1CCOCC1 | 590 |
| CCOc1ccc(-c2ccc(N3CCN(C(=O)Cc4noc5ccccc45)CC3)nn2)cc1 | 672 |
| COc1ccc(NC(=O)C2CCCN(c3cnc4nccnc4c3)C2)cc1Cl (stereo not drawn) | 746 |
| COc1ccc(-n2c(=O)c(C(=O)Nc3ccccc3)c(O)c3cccnc32)cc1 | 1200 |
| COc1ccc(C(=O)Nc2nc(-c3ccc4c(c3)N(C)C(=O)C(C)O4)cs2)cc1OC (stereo not drawn) | 932 |
| O=C(NCc1ccc(Br)cc1)c1cn2ccccc2n1 | 726 |
| O=C(NCc1ccc2c(c1)OCO2)c1cn2c(n1)CSCC2 | 650 |
| COc1ccc(S(=O)(=O)Nc2cc(-c3cn4ccc(C)cc4n3)ccc2C)cc1C | 687 |
| COC1(C2=NCCN2)COc2ccccc2O1 (stereo not drawn) | 581 |
| Cc1ccccc1Nc1c(-c2ccc(N3CCOCC3)cc2)nc2cnccn12 | 822 |
| CCC(C)NC(=O)CCc1c(-c2ccc(Br)cc2)nc2ccccn12 (stereo not drawn) | 657 |
| COCCN1C(=O)CCc2cc(NS(=O)(=O)c3ccccc3F)ccc21 | 726 |
| O=C(NCCc1ccc(Cl)cc1)C1CCN(C(=O)c2cccn2-c2cccnc2)CC1 | 727 |

| Structure (SMILES) | RP-LC retention time [s] |
| --- | --- |
| O=C(Cc1cccs1)N1CCCC1(CO)Cc1ccccc1 (stereo not drawn) | 853 |
| CC(NC(=O)c1ccc2ncnc(N3CCCCC3)c2c1)c1cccnc1 (stereo not drawn) | 545 |
| Cc1cc(N2CCOCC2)nc(N2CCN(C(=O)c3c(F)cccc3F)CC2)n1 | 1050 |
| c1ccc(N2CCN(c3ncnc4scc(-c5cccs5)c34)CC2)cc1 | 1250 |
| Cn1c(=O)c2ccnn2c2ccc(C(=O)NC3CCCCC3)cc21 | 742 |
| Cc1cccc(N2CCN(C(=O)C3CCN(S(=O)(=O)c4cn(C)c(C)n4)CC3)CC2C)c1 (stereo not drawn) | 667 |
| O=C(c1ccccc1F)N1CCCCC1c1nncn1CC1CC1 (stereo not drawn) | 698 |
| COc1ccc2c(c1)C1(CCN(S(=O)(=O)c3ccc(C)cc3)C1)C(=O)N2C (stereo not drawn) | 929 |
| Cc1cc(OCC(=O)N2CCC3(O)CCCCC3C2)c2c3c(c(=O)oc2c1)CCC3 (stereo not drawn) | 803 |
| Cc1cc(N2CCC(NC(=O)Nc3ccccc3C(F)(F)F)C2=O)ccc1F (stereo not drawn) | 915 |
| O=C(NCc1ccc(F)cc1)C1=C2CCCN2c2ccc(F)cc2S1(=O)=O | 864 |
| CCOC(=O)CSc1nnc(CNC(=O)c2cc(OC)c(OC)c(OC)c2)n1C | 601 |
| Cc1cnc(C2CN(C(=O)c3cccn3C)C2)n1CC1CC1 | 608 |
| COc1ccc(NC(=O)NCCn2c(-c3ccncc3)nc3cccnc32)cc1 | 608 |
| O=C(Nc1nnc(Cc2ccc3c(c2)OCCO3)o1)c1sc2ccccc2c1Cl | 950 |
| CCC(C)NC(=O)Cn1nc2c(Oc3ccccc3)nc3ccccc3n2c1=O (stereo not drawn) | 895 |
| Cc1cc(-c2ccc3c(c2)CCN3C(=O)c2cccc(NC(=O)c3ccco3)c2)on1 | 841 |
| CCS(=O)(=O)N1CC(c2nc(-c3ccc(F)cc3)no2)C2(CCOCC2)C1 (stereo not drawn) | 877 |
| Cc1cccc(CN2CC(c3noc(C4CCCN4CC4CC4)n3)C2)c1 (stereo not drawn) | 526 |
| Cc1cc(C)cc(NC(=O)N2CCC(N3CCN(Cc4cccc(F)c4)C(=O)C3=O)CC2)c1 | 800 |
| O=C(O)Cc1sc(Nc2ccccc2)nc1-c1ccccc1 | 858 |
| COc1ccc(-c2noc(C3CCCN3C(=O)c3ccco3)n2)cc1OC (stereo not drawn) | 780 |

| Structure (SMILES) | RP-LC retention time [s] |
| --- | --- |
| O=C(NCc1csc(C2CCN(C(=O)c3ccc(F)c(F)c3)CC2)n1)C1CC1 | 705 |
| Cc1ccc(-c2noc(C3CCCN3C(=O)CNC(=O)C(c3ccccc3)c3ccccc3)n2)cc1 (stereo not drawn) | 1100 |
| CNC(=O)NC1CCN(C(=O)c2cccc(F)c2)C1 (stereo not drawn) | 628 |
| O=C(c1cc(-c2ccco2)[nH]n1)N1CCN(c2ncccn2)CC1 | 640 |
| Cc1ccc(NC(=O)CSc2nccc(N3CCN(c4cc(C)ccc4C)CC3)n2)c(Cl)c1 | 1190 |
| O=c1c(NCCc2ccc(Cl)cc2)nccn1-c1ccc2c(c1)OCO2 | 870 |
| CCn1c(=O)c(C(=O)NCc2ccccc2OC)nc2cccnc21 | 800 |
| O=C(Cn1nc2c(N3CCCCCC3)nccn2c1=O)NCc1ccc2c(c1)OCO2 | 659 |
| CCOc1cccc(CNc2nc3ccncc3n(C(C)C)c2=O)c1 | 687 |
| CCC1Oc2ccc(S(=O)(=O)N3CCC(C(=O)Nc4ccc5c(c4)OCO5)CC3)cc2NC1=O (stereo not drawn) | 809 |
| O=S(=O)(c1ccc2c(c1)-c1oncc1CO2)N1CCN(C(c2ccccc2)c2ccccc2)CC1 | 1130 |
| Cn1nc(-c2nnc(-c3ccc(F)cc3)o2)c2c1CCN(S(=O)(=O)c1ccc(Cl)cc1)C2 | 1020 |
| CCOc1cccc(-c2noc(Cn3c(=O)n(-c4cccc(OC)c4)c(=O)c4sccc43)n2)c1 | 970 |
| COc1ccc(N2CCN(c3cc(C(=O)O)c4cc(NC(C)=O)ccc4n3)CC2)cc1 | 599 |
| CCOc1nccnc1N1CCC(N(C)C(=O)Cc2c(C)noc2C)C1 (stereo not drawn) | 672 |
| COc1cccc(CNC(=O)N2c3ccccc3CC2c2nc(C(C)C)no2)c1 (stereo not drawn) | 1000 |
| CN(C(=O)CC(=O)Nc1ccc2nc3n(c(=O)c2c1)CCCCC3)c1cccc(C(F)(F)F)c1 | 771 |
| Cc1noc(-c2cccc(OC3CN(C(=O)C4CCOC4)C3)c2)n1 (stereo not drawn) | 694 |
| CCn1ncc(C(=O)N2CC[C@@H]3CN(S(C)(=O)=O)[C@@H]3C2)c1C | 594 |
| COc1cccc(S(=O)(=O)N2CCC(c3nc(C(=O)N4CCOCC4)c(C)o3)CC2)c1 | 794 |
| O=C(Nc1ccc(Cl)cc1)N1CCCC1c1nc(-c2ccc(F)cc2F)no1 (stereo not drawn) | 1040 |
| COCCC1CCN(C(=O)CN(C)C(=O)c2cccn2C)CC1 | 670 |
